Drawing on patent US7456170B2, “Triazolobenzodiazepines and their use as vasopressin antagonists” (Pfizer Inc., priority 2004, dated 2008), this text covers Ki for 3 compounds.

The experiment concerns the target human V1A receptor (Homo sapiens, UniProt P37288). The experiment is described as follows: V1A filter binding assay ([3H]-AVP binding to CHO-hV1A membranes). On the procedure: 1.0 V1A Filter Binding Assay
Receptor binding assays were performed on cellular membranes prepared from CHO cells stably expressing the human V1A receptor, (CHO-hV1A). The CHO-hV1A cell line was kindly provided under a licensing agreement by Marc Thibonnier, Dept. of Medicine, Case Western Reserve University School of Medicine, Cleveland, Ohio, CHO-hV1A cells were routinely maintained at 37° C. in humidified atmosphere with 5% CO2 in DMEM/Hams F12 nutrient mix supplemented with 10% fetal bovine serum, 2 mM L-glutamine, 15 mM HEPES and 400 μg/ml G418. For bulk production of cell pellets, adherent CHO-hV1A cells were grown to confluency of 90-100% in 850 cm^2 roller bottles containing a medium of DMEM/Hams F12 Nutrient Mix supplemented with 10% fetal bovine serum, 2 mM L-gitidtamine and 15 mM HEPES. Confluent CHO-hV1A cells were washed with phosphate-buffered saline (PBS), harvested into ice cold PBS and centrifuged at 1,000 rpm. Cell pellets were stored at −80° C. until use. […] Protein concentration was determined using Bradford reagent and BSA as a standard.
Protein linearity followed by saturation binding studies were performed on each new batch of membrane. […] Saturation binding studies were then performed using various concentrations of [^3H]-arginine vasopressin, [^3]-AVP (0.05 nM-100 nM) and the Kd and Bmax determined.
Compounds were tested for their effects on [^3H]-AVP binding to CHO-hV1A membranes, (^3H-AVP; specific activity 65.5 Ci/mmol: NEN Life Sciences). […] The plates were sealed and counted on a TopCount Microplate Scintillation Counter (Packard Instruments). Non-specific binding (NSB) was determined using 1 μM unlabelled d(CH2)5Tyr(Me)AVP ([β-mercapto-β,β-cyclopentamethylenepropionyl,0-Me-Tyr^2,Arg^8]-vasopressin) (βMCPVP), (Sigma). The radioligand binding data was analysed using a four parameter logistic equation with the min forced to 0%. […] Specific binding was calculated by subtracting the mean NSB cpm from the mean Total cpm. For test compounds the amount of ligand bound to the receptor was expressed as % bound=(sample cpm−mean NSB cpm)/specific binding cpm×100. […]

Where [1] appears, read: [3H]-AVP binding to CHO-hV1A membranes, screen 1.0, read-out: Ki.

SMILES strings stand for the structures. Read-outs that look alike come from different tables or passages of the source.

Chain of human V1A receptor (P37288 whole entry): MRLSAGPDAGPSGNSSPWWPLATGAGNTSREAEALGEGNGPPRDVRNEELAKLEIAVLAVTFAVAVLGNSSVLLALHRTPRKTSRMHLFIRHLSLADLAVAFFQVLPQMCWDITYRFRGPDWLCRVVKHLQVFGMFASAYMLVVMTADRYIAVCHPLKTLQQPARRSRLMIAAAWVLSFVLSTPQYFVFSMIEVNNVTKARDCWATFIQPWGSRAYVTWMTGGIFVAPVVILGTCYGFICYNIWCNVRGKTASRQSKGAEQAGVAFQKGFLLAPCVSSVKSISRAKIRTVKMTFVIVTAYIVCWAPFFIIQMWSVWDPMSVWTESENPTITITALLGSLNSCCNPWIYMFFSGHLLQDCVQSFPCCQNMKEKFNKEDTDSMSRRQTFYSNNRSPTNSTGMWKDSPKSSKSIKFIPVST

`CS(=O)(=O)N1Cc2cc(Cl)ccc2-n2c(nnc2N2CCC(c3ccccn3)CC2)C1` [Example 3, 8-Chloro-5-(methylsulfonyl)-1-(4-pyridin-2-ylpiperidin-1-yl)-5,6-dihydro-4H-[1,2,4]triazolo[4,3-a][1,4]benzodiazepine]: the Ki (usually a measure of affinity in units of concentration, obtained from inhibition or displacement) was 0.62 nM.
In the case of `CS(=O)(=O)N1Cc2cc(Cl)ccc2-n2c(nnc2N2CCC(c3ccccc3)CC2)C1` [Example 6, 8-Chloro-5-(methylsulfonyl)-1-(4-phenylpiperidin-1-yl)-5,6-dihydro-4H-[1,2,4]triazolo[4,3-a][1,4]benzodiazepine], the inhibitory constant (Ki) under setting [1] worked out at 0.17 nM.
With `CN(C)S(=O)(=O)N1Cc2cc(Cl)ccc2-n2c(nnc2N2CCC(c3ccccc3)CC2)C1` [Example 8, 8-Chloro-N,N-dimethyl-1-(4-phenylpiperidin-1-yl)-4H-[1,2,4]triazolo[4,3-a][1,4]benzodiazepine-5(6H)-sulphonamide], the inhibition constant Ki under setting [1] is 0.36 nM.
